Assay results taken from patent US11285156B2, “Substituted piperazines as KRAS G12C inhibitors” (Amgen Inc., priority 2018, dated 2022).
Read-outs that look alike come from different tables or passages of the source.

Key:
[1] = system: Phosphorylation of ERK1/2 in MIA PaCa-2 cells; test: Phospho-ERK1/2 MSD assay in MIA PaCa-2 cells; format: cell-based; conditions: read-out: p-ERK IC50 (2 h, MiaPaCa-2; μM)
Procedure: (§1) Phospho-ERK1/2 MSD Assay:
(§2) Sixteen hours prior to compound treatment, MIA PaCa-2 or A549 cells were seeded in 96-well cell culture plates at a density of 25,000 cells/well and incubated at 37° C., 5% CO2. A compound dose-response titration was diluted in growth media, added to appropriate wells of a cell culture plate, and then incubated at 37° C., 5% CO2 for 2 or 4 hours (see Table 15). Following compound treatment, cells were stimulated with 10 ng/mL EGF (Roche 11376454001) for 10 min, washed with ice-cold Dulbecco's phosphate-buffered saline, no Ca2+ or Mg2+ (ThermoFisher Scientific 14190144), and then lysed in RIPA buffer (50 mM Tris-HCl pH 7.5, 1% Igepal, 0.5% sodium deoxycholate, 150 mM NaCl. and 0.5% sodium dodecyl sulfate) containing protease inhibitors (Roche 4693132001) and phosphatase inhibitors (Roche 4906837001). Phosphorylation of ERK1/2 in compound-treated lysates was assayed using Phospho-ERK1/2 Whole Cell Lysate kits (Meso Scale Discovery K151DWD) according to the manufacturer's protocol.

[2] = system: Phosphorylation of ERK1/2 in A549 cells; test: Phospho-ERK1/2 MSD assay in A549 cells; format: cell-based; conditions: read-out: p-ERK IC50 (2 h, A549; μM)
Procedure: as §1
as §2, with “MIA PaCa-2 (ATCC® CRL-1420™) and A549 (ATCC® CCL-185™) cells were cultured in RPMI 1640 Medium (ThermoFisher Scientific 11875093) containing 10% fetal bovine serum (ThermoFisher Scientific 16000044) and 1× penicillin-streptomycin-glutamine (ThermoFisher Scientific 10378016). Sixteen” for “Sixteen”

[3] = 2 h compound treatment, MIA PaCa-2 cells, EGF stimulated
[4] = 2 h compound treatment, A549 cells, EGF stimulated
[5] = Homo sapiens, MIA PaCa-2, 2 h, 2 h compound treatment, MIA PaCa-2 cells, EGF stimulated
[6] = Homo sapiens, A549, 2 h, 2 h compound treatment, A549 cells, EGF stimulated

C=CC(=O)N1C[C@H](C)N(c2nc(=O)n(-c3c(C)ccnc3C(C)C)c3nc(-c4ccccc4[S+](C)[O-])c(Cl)cc23)C[C@H]1C (atropisomer, axis not shown; (M)) [Example 212-2, (M)-4-((2S,5R)-4-Acryloyl-2,5-dimethylpiperazin-1-yl)-6-chloro-1-(2-isopropyl-4-methylpyridin-3-yl)-7-(2-(methylsulfinyl)phenyl)pyrido[2,3-d]pyrimidin-2(1H)-one]
IC50 [1, 3]: 0.237 µM
IC50 [2, 4]: > 7.5 µM

C=CC(=O)N1C[C@H](C)N(c2nc(=O)n(-c3c(C)cc(C)nc3C(C)C)c3nc(-c4ccccc4F)c(Cl)cc23)C[C@H]1C (single isomer, unassigned) [Example 165-1]
IC50 [1, 5]: 0.049 µM
IC50 [2, 6]: > 7.5 µM

C=CC(=O)N1C[C@H](C)N(c2nc(=O)n(-c3c(C(C)C)nc(CN(C)C)nc3C(C)C)c3nc(-c4ccccc4F)c(Cl)cc23)C[C@H]1C [Example 160, 4-((2S,5R)-4-Acryloyl-2,5-dimethylpiperazin-1-yl)-6-chloro-1-(2-((dimethylamino)methyl)-4,6-diisopropylpyrimidin-5-yl)-7-(2-fluorophenyl)pyrido[2,3-d]pyrimidin-2(1H)-one]
IC50 ([1]; Homo sapiens, MIA PaCa-2, 2 h): 0.058 µM
IC50 ([2]; Homo sapiens, A549, 2 h): > 7.5 µM

C=CC(=O)N1C[C@H](C)N(c2nc(=O)n(-c3c(C(C)C)ccnc3C(C)C)c3nc(-c4ccccc4F)c(Cl)cc23)C[C@H]1C [Example 124-1, 6-Chloro-1-(2,4-diisopropyl-3-pyridyl)-4-[(2S,5R)-2,5-dimethyl-4-prop-2-enoyl-piperazin-1-yl]-7-(2-fluorophenyl)pyrido[2,3-d]pyrimidin-2-one]
IC50 [1, 3]: 0.024 µM
IC50 [2, 4]: > 7.5 µM

C=CC(=O)N1C[C@H](C)N(c2nc(=O)n(-c3c(N(C)C)ccnc3C(C)C)c3nc(-c4c(N)cccc4F)c(Cl)cc23)C[C@H]1C [Example 55-56, 7-(2-Amino-6-fluoro-phenyl)-6-chloro-1-[4-(dimethylamino)-2-isopropyl-3-pyridyl]-4-[(2S,5R)-2,5-dimethyl-4-prop-2-enoyl-piperazin-1-yl]pyrido[2,3-d]pyrimidin-2-one]
IC50 [1, 3]: 0.01 µM
IC50 [2, 4]: > 7.5 µM

C=CC(=O)N1C[C@H](C)N(c2nc(=O)n(-c3c(C)ccnc3C(C)C)c3nc(-c4c(F)cccc4[S+](C)[O-])c(Cl)cc23)C[C@H]1C (atropisomer, axis not shown; (M)) [Example 211-3, (M)-4-((2S,5R)-4-Acryloyl-2,5-dimethylpiperazin-1-yl)-6-chloro-7-(2-fluoro-6-(methylsulfinyl)phenyl)-1-(2-isopropyl-4-methylpyridin-3-yl)pyrido[2,3-d]pyrimidin-2(1H)-one]
IC50 [1, 3]: 0.253 µM
IC50 [2, 4]: > 7.5 µM

C=CC(=O)N1C[C@H](C)N(c2nc(=O)n(-c3c(C(C)C)ccnc3C(C)C)c3nc(-c4ccccc4F)c(Cl)cc23)C[C@H]1C [Example 102-3, 6-Chloro-1-(2,4-diisopropyl-3-pyridyl)-4-[(2S,5R)-2,5-dimethyl-4-prop-2-enoyl-piperazin-1-yl]-7-(2-fluorophenyl) pyrido[2,3-d]pyrimidin-2-one]
IC50 [1, 3]: 0.032 µM
IC50 [2, 6]: > 7.5 µM

C=CC(=O)N1C[C@H](C)N(c2nc(=O)n(-c3c(C)ccnc3C(C)C)c3nc(C4=CCCCC4)c(Cl)cc23)C[C@H]1C (atropisomer, axis not shown; (M)) [Example 92-6, (M)-6-Chloro-7-(cyclohexen-1-yl)-4-[(2S,5R)-2,5-dimethyl-4-prop-2-enoyl-piperazin-1-yl]-1-(2-isopropyl-4-methyl-3-pyridyl)pyrido [2,3-d]pyrimidin-2-one]
IC50 [1, 5]: 0.237 µM
IC50 [2, 6]: > 7.5 µM

C=CC(=O)N1C[C@H](C)N(c2nc(=O)n(-c3c(C(C)C)ccnc3C(C)C)c3nc(-c4ccccc4Cl)c(Cl)cc23)C[C@H]1C (single isomer, unassigned) [Example 124-6]
IC50 [1, 5]: 0.062 µM
IC50 [2, 6]: > 7.5 µM

C=CC(=O)N1C[C@H](C)N(c2nc(=O)n(-c3c(C)ccnc3C(C)C)c3nc(-c4cc(F)c(F)c(F)c4N)c(Cl)cc23)C[C@H]1C (atropisomer, axis not shown; (M)) [Example 92-38, (M)-7-(2-Amino-3,4,5-trifluoro-phenyl)-6-chloro-4-[(2S,5R)-2,5-dimethyl-4-prop-2-enoyl-piperazin-1-yl]-1-(2-isopropyl-4-methyl-3-pyridyl)pyrido [2,3-d]pyrimidin-2-one]
IC50 [1, 5]: 0.042 µM
IC50 [2, 6]: > 7.5 µM

C=CC(=O)N1C[C@H](C)N(c2nc(=O)n(-c3c(CC)ccnc3C(C)C)c3nc(-c4ccccc4F)c(Cl)cc23)C[C@H]1C [Example 55-58, 6-Chloro-4-[(2S,5R)-2,5-dimethyl-4-prop-2-enoyl-piperazin-1-yl]-l-(4-ethyl-2-isopropyl-3-pyridyl)-7-(2-fluorophenyl)pyrido[2,3-d]pyrimidin-2-one]
IC50 [1, 5]: 0.056 µM
IC50 [2, 6]: > 7.5 µM

C=CC(=O)N1C[C@H](C)N(c2nc(=O)n(-c3c(C(C)C)ccnc3C(C)C)c3nc(-c4ccccc4)c(Cl)cc23)C[C@H]1C [Example 124-7, 6-Chloro-1-(2,4-diisopropyl-3-pyridyl)-4-[(2S,5R)-2,5-dimethyl-4-prop-2-enoyl-piperazin-1-yl]-7-phenyl-pyrido[2,3-d]pyrimidin-2-one]
IC50 [1, 5]: 0.093 µM
IC50 [2, 6]: > 7.5 µM

C=CC(=O)N1C[C@H](C)N(c2nc(=O)n(-c3c(Cl)ccnc3C(C)C)c3nc(-c4ccccc4F)c(Cl)cc23)C[C@H]1C [Example 55-50, 6-Chloro-1-(4-chloro-2-isopropyl-3-pyridyl)-4-[(2S,5R)-2,5-dimethyl-4-prop-2-enoyl-piperazin-1-yl]-7-(2-fluorophenyl)pyrido[2,3-d]pyrimidin-2-one]
IC50 [1, 5]: 0.023 µM
IC50 [2, 6]: > 7.5 µM

C=CC(=O)N1C[C@H](C)N(c2nc(=O)n(-c3c(C(C)C)ccnc3C(C)C)c3nc(-c4ccccc4Cl)c(Cl)cc23)C[C@H]1C (single isomer, unassigned) [Example 125-6]
IC50 [1, 3]: 0.105 µM
IC50 [2, 4]: > 7.5 µM

C=CC(=O)N1C[C@H](C)N(c2nc(=O)n(-c3c(C(C)C)ccnc3C(C)C)c3nc(-c4c(O)cccc4F)c(Cl)cc23)C[C@H]1C (single isomer, unassigned) [Example 125-4]
IC50 [1, 3]: 0.023 µM
IC50 [2, 4]: > 7.5 µM

C=CC(=O)N1C[C@H](C)N(c2nc(=O)n(-c3c(C(C)C)cc(Br)nc3C(C)C)c3nc(-c4ccccc4F)c(Cl)cc23)C[C@H]1C [Example 102-4, 1-(6-Bromo-2,4-diisopropyl-3-pyridyl)-6-chloro-4-[(2S,5R)-2,5-dimethyl-4-prop-2-enoyl-piperazin-1-yl]-7-(2-fluorophenyl) pyrido[2,3-d]pyrimidin-2-one]
IC50 [1, 5]: 0.262 µM
IC50 [2, 6]: 4.73 µM

C=CC(=O)N1C[C@H](C)N(c2nc(=O)n(-c3c(C)ccnc3C(C)C)c3nc(-c4c(F)cccc4S(C)(=O)=O)c(Cl)cc23)C[C@H]1C (atropisomer, axis not shown; (M)) [Example 214, (M)-4-((2S,5R)-4-Acryloyl-2,5-dimethylpiperazin-1-yl)-6-chloro-7-(2-fluoro-6-(methylsulfonyl)phenyl)-1-(2-isopropyl-4-methylpyridin-3-yl)pyrido[2,3-d]pyrimidin-2(1H)-one]
IC50 [1, 3]: 0.025 µM
IC50 [2, 4]: > 7.5 µM

C=CC(=O)N1C[C@H](C)N(c2nc(=O)n(-c3c(C)cc(N4CCC4)nc3C(C)C)c3nc(-c4ccccc4F)c(Cl)cc23)C[C@H]1C (single isomer, unassigned) [Example 175-2]
IC50 [1, 5]: 0.171 µM
IC50 [2, 6]: > 7.5 µM

C=CC(=O)N1C[C@H](C)N(c2nc(=O)n(-c3c(C)cc(C(=C)C)nc3C(C)C)c3nc(-c4ccccc4F)c(Cl)cc23)C[C@H]1C (single isomer, unassigned) [Example 173-1]
IC50 [1, 5]: 0.229 µM
IC50 [2, 6]: 5.97 µM
